Source: paper PMC4665511, “An Improved Neutral α-Glucosidase Assay for Assessment of Epididymal Function—Validation and Comparison to the WHO Method” (Diagnostics, 2014)

Tested on: T1, Neutral α-glucosidase (NAG)
T1 construct: gene MGAM; native, unpurified enzyme in human seminal plasma
Assay: spectrophotometric PNP release at […] nm, Michaelis-Menten
Assay type: biochemical, Homo sapiens
Conditions: seminal plasma, not purified; average of semen samples (n = 13 in methods); adapted proprietary buffer with SDS, pH 6.8, 37 °C

Km: 4.6 ± 0.63 mM
Compound: O=[N+]([O-])c1ccc(O[C@H]2O[C@H](CO)[C@@H](O)[C@H](O)[C@H]2O)cc1 [para-nitrophenyl-α-D-glucopyranoside]
